One assay deals with RII. The assay can be described thus: ELISA and modified ELISA, AKAP 79 binding to immobilized RII. The procedure:
(§1) Specifically, in the first method, recombinant CaN A, expressed as described above, was added to wells of Immulon plates (Dynatech) in a 35 mM sodium bicarbonate/15 mM sodium carbonate buffer, pH 9.6. Proteins bound to the surface of the wells by plastic/protein interaction. As a positive control, RII, and a negative control, bovine serum albumin (BSA) were separately and similarly captured in individual wells and assayed in this method. Nonspecific sites in the wells were blocked with a buffer containing 2.5% milk in 50 mM sodium citrate and 145 mM sodium chloride. Full length TRX-AKAP 79 was added in a final volume of 100 μl and after up to 2 hours incubation, free and non-specific proteins were removed with several washes with PBS/0.5% Tween 20. A mouse anti-AKAP 79 monoclonal antibody, generated against recombinant AKAP 79, was added to each well, followed by addition of a horse radish peroxidase (HRP)-conjugated goat anti-mouse antibody. HRP substrate tetramethylbenzidine (TMB) was added and absorbance at 450 nm determined using a Dynatech 96 well plate reader.
In the modified ELISA, standard ELISA techniques were employed except that HRP-conjugated streptavidin was used to detect bound biotinylated AKAP 79 instead of an anti-AKAP 79 monoclonal antibody. Briefly, after incubation of immobilized CaN A with biotinylated AKAP 79, HRP-conjugated streptavidin was added for 30 minutes. Unbound protein was removed with multiple washes of PBS/0.05% Tween 20. Bound streptavidin was detected with HRP substrate TMB and absorbance measured at 450 nm using a Dynatech 96 well plate reader. As in the ELISA described above, RII was immobilized and assayed as a positive control, and BSA as a negative control.
A general note: An ELISA detects its analyte on a solid surface through an enzyme-linked reagent.

For a further assay, the target named is T1, CaN A (Rattus norvegicus, UniProt P63329).
T1 construct: the deletion mutant form of CaN A is used in the assays described above in place of full length CaN A; made in house; host or cells: Sf9 cells (baculovirus); construct from Vollum Institute
The assay can be described thus: ELISA and modified ELISA, AKAP 79 binding to immobilized CaN A. As to the method:
Two different capture methods were used. In one method, CaN A was first captured on plates by passive coating, AKAP 79 or biotinylated AKAP 79 was added, and complex formation detected by either ELISA or by streptavidin-HRP. In another method, rabbit anti-mouse antibodies were first captured on plates, mouse anti-TRX antibodies added and captured, and TRX-AKAP 79 added and captured. This method was similar to the capture method used for AKAP 79/^3 H-RII SPA. Biotinylated CaN A was then added, and the complex detected by streptavidin-HRP.
as §1
In the modified ELISA, standard ELISA techniques were employed except that HRP-conjugated streptavidin was used to detect bound biotinylated AKAP 79 instead of an anti-AKAP 79 monoclonal antibody. Briefly, after incubation of immobilized CaN A with biotinylated AKAP 79, HRP-conjugated streptavidin was added for 30 minutes. […] Bound streptavidin was detected with HRP substrate TMB and absorbance measured at 450 nm using a Dynatech 96 well plate reader. […]

The next assay has as its target T2, CaN (Rattus norvegicus, UniProt P63329).
T2 construct: made in house; host or cells: Sf9 cells (baculovirus)
The assay can be described thus: CaN phosphatase activity toward 32P RII peptide substrate. The format is biochemical. The settings on record: Ca2+/calmodulin dependent CaN 30 nM, 32P RII peptide substrate. As to the method: (§2) To determine whether AKAP 79 peptide binding inhibits CaN activity, CaN phosphatase activity was assayed in the presence of recombinant AKAP 79. Briefly, recombinant AKAP 79 was expressed in E. coli as described in Carr et al., J. Biol. Chem., 267:16816-16823 (1992), incorporated herein by reference. CaN and the constitutively active truncation mutant CaN420 (a truncated, Ca^2+ /calmodulin independent constitutively active form of CaN (Perrino et al., J. Biol. Chem., in press)) were expressed in Sf9 cells and purified on calmodulin-Sepharose as described in Perrino et al., J. Biol Chem., 267:15965-15969 (1992), incorporated herein by reference. Phosphatase activity toward ^32 P RII peptide substrate was measured as described in Perrino et al., supra. CaN (30 nM), calmodulin (100 nM) and ^32 P RII peptide (22 μM) were incubated with AKAP 79 protein and AKAP 79 peptide (SEQ ID NO:1-amino acids 81-102) over the range of concentrations indicated in FIG. 1B. Calmodulin was omitted from CaN420 assays. ^32 P released from the substrate was measured in triplicate samples in three separate experiments by scintillation counting. The inhibition constant (Ki) of recombinant AKAP 79 for CaN was determined by linear regression analysis of data. Ki values for AKAP 79 peptide were estimated by determining the IC50 using a fixed substrate concentration at Km (42 μM).

For another assay, the target named is T3, CaN420 (Rattus norvegicus, UniProt P63329).
T3 construct: a truncated, Ca^2+ /calmodulin independent constitutively active form of CaN; made in house; host or cells: Sf9 cells (baculovirus)
The assay can be described thus: CaN420 phosphatase activity toward 32P RII peptide substrate. It counts as biochemical. The settings on record: calmodulin omitted. The procedure:
as §2

The subject of assay [1] is IL-2 transcription in Jurkat T cell line (NFATZ). The assay is described as follows: NFATZ Jurkat IL-2 promoter lacZ β-gal FACS assay. It counts as cell-based. An excerpt: IL- 2 transcription was studied following activation with PMA and ionomycin. These two agents are known respectively to potentiate protein kinase C and calcium second messenger responses (including activation of CaN). Protein kinase C activates the Ras-Raf-1-Mek-MAP Kinase pathway that participates in induction of the nuclear component of NFAT. The increased calcium concentration activates calcineurin which, in turn, activates the cytoplasmic component of NFAT and allows translocation to the nucleus.
Each of the peptides was myristilated as described in Eichholtz et al., J. Biol. Chem., 268:1982-1986 (1993).
Incubation with forskolin/IBMX elevates intracellular cAMP concentrations (FIG. 4), thereby activating PKA. Finally, phorbol 12-myristate 13-acetate (PMA) (10 ng/ml) and ionomycin (2 μM) were added and incubations continued for 4 hr. Controls were incubated with PMA/ionomycin alone or forskolin/IBMX and PMA/ionomycin under conditions as described above. During the last 20 min of the PMA/ionomycin incubation, chloroquine (300 μM) was added to inhibit endogenous lysosomal β-gal activity. The cells were spun out and resuspended in 50 μl of culture medium to which 50 μl of fluorescein di-β-D-galactopyranoside (FDG) was added (0.1 mM final concentration; Molecular Probes). […] The lacZ β-gal activity was measured by flow cytometry configured for fluorescein analysis.

The next assay concerns the target AKAP 79/RII binding. The assay is described as follows: Scintillation proximity assay of TRX-AKAP 79/3H-RII binding. The settings on record: read-out: IC50 of inhibition of AKAP 79/RII binding. The source says:
Initially, a thioredoxin TRX-AKAP 79 fusion protein expression plasmid was constructed. See, generally, LaVallie, et al., BIO/TECHNOLOGY 11:187-193 (1993). Briefly, a XhaI/HindIII thioredoxin fragment was subcloned into pUC 19 containing a lac Z gene and a tacZ promoter. The resulting plasmid was designated TRX F/S pUC19. In order to insert an AKAP 79 encoding sequence into TRX F/S pUC19, an NcoI site was created with an oligonucleotide (SEQ ID NO:32) having terminal SpeI and HindIII sequences. Following SpeI/HindIII digestion, the oligonucleotide was inserted into the vector and an NcoI/XhoI fragment encoding AKAP 79 was ligated in frame with the thioredoxin gene. The fusion protein was expressed in E. coli and immobilized on 96-well ScintiStrip plates (Wallac, Turbu, Finland) which contained a scintillator embedded in the solid support. […] When ^3 H-RII bound to AKAP 79, the label was brought sufficiently close to the support-embedded scintillator, resulting in emission detected in a MicroBeta scintillation counter.
The scintillation proximity assay (SPA) screening protocol described in Example 8 was employed to determine the ability of various chemicals to inhibit binding between AKAP 79 and ^3 H-RII. […] Percent binding was determined by the measuring the amount of radioactivity in each well compared to the amount of radioactivity in wells wherein only AKAP 79 and ^3 H-RII were introduced.

The subject of the next assay is PKC/AKAP 79 interaction. The assay can be described thus: PKC overlay assay. It counts as binding, rabbit. The procedure:
In order to determine if the 75 kDa protein identified may be the bovine homolog of AKAP 79, the PKC overlay assay was used to probe AKAP 79 and related fragments. Briefly, proteins were separated by SDS-polyacrylamide electrophoresis (SDS-PAGE) and blotted to nitrocellulose following standard protocols. Samples were blocked in Blotto [1 mg/ml bovine serum albumin (BSA), 5% dry milk in Tris-buffered saline (TBS)] and incubated for one hour at room temperature in assay buffer [TBS containing 1 mg/ml BSA, 1.2 mM calcium, 1 mM EGTA, 20 μg/ml phosphatidylserine (PS), 2 μg/ml leupeptin, 2 μg/ml pepstatin and 3 μg/ml of partially purified rabbit brain PKC]. Bound PKC was detected with monoclonal antibody M7, which recognizes both PKCα and β, following standard chemiluminescent detection methods.

The test system of the next assay is PKC. The assay is described as follows: PKC activity assay with EGF receptor peptide substrate. It counts as biochemical. The procedure:
In order to asses the ability of these peptides to modulate PKC activity, the following assay was performed in the presence and absence of AKAP 79 peptide fragments. PKC [50 nM dissolved in 50 mM tris-HCl (pH 7.4), 5 mM MgCl2 1.2 mM CaCl2, 1 mM DTT, 1 mM EGTA and 100 μg/ml PS] was incubated with EGF receptor peptide substrate (5 μM) at 30° C. for five minutes. Phosphorylation reaction was initiated by addition of 100 μM ^32 P-ATP (500 cpm/pmol) and the reaction allowed to proceed for ten minutes at 30° C. Aliquots of reaction mixture were removed and spotted into P81 filter paper and the reaction terminated by washing the filter paper with excess 75 mM phosphoric acid (three washes for three minutes each). After a final wash in ethanol, the p81 filters were dried and radioactivity was measured by liquid scintillation counting.

pIC50: −log10 of the molar value. Ends that are not written are not given here.

Turning to “AKAP 79/M108: biotinylated AKAP 79 truncation, first 108 amino terminal residues deleted”, in the assay with RII, the “recognition of immobilized RII” value is given as “specifically recognized”.

“AKAP 79/Met159: biotinylated AKAP 79 truncation, first 159 amino terminal amino acids deleted”: the “binding to immobilized CaN A” value in the assay with CaN A is “no specific binding”. Also, in the assay with RII, the “recognition of immobilized RII” value was “specifically recognized”.

Regarding “AKAP 79/Met247: biotinylated AKAP 79 truncation, first 247 amino terminal amino acids deleted”, the “binding to immobilized CaN A” value in the assay with CaN A is “no specific binding”. The “recognition of immobilized RII” value in the assay with RII was “specifically recognized”.

Consider “AKAP 79: recombinant anchoring protein AKAP 79 expressed in E. coli”, for which, in the assay with CaN, the “inhibition of full-length CaN phosphatase activity” value is “non-competitive manner”. Moreover, the “inhibition of CaN420 phosphatase activity” value in the assay with CaN420 was “non-competitive manner”. The “binding to immobilized CaN A” value with CaN A is recorded as “bound”.

Consider “Asp-Leu-Ile-Glu-Glu-Ala-Ala-Ser-Arg-Ile-Val-Asp-Ala-Val-Ile-Glu-Gln-Val-Lys-Ala-Ala-Gly-Ala-Tyr (DLIEEAASRIVDAVIEQVKAAGAY; also: myristoylated, place not given here) [myristilated Ht31 peptide, amino acids 493-515 of the full length Ht31 protein, myristilated]”, for which the “reversal of forskolin/IBMX blockade of PMA/ionomycin induced β-gal activity” value in assay [1] (100 μM myristilated peptide) is “completely reversed”.

For the substance “Ht31 peptide: Ht31 peptide (SEQ ID NO:4), blocks anchoring protein binding to RII (DLIEEAAVSRIVDAVIEEVKAAGA) [reference compound]”, the “inhibition of full-length CaN phosphatase activity” value in the assay with CaN was “not an inhibitor”. Moreover, the pIC50 at AKAP 79/RII binding is 7.30.

Consider “myristilated AKAP 75 peptide: myristilated peptide of amino acids 81-108 of AKAP 75 (SEQ ID NO:8) (SIKRLVTRRKRSESSKQQKPFKAKLQSE; also: myristoylated, place not given here)”, for which, in assay [1] (10 μM in the medium), the “reduction of PMA/ionomycin induced β-gal activity” value is reported as 40-50%.

For “peptide containing residues 31-52: synthetic peptide of residues 31-52 of AKAP 79 (KASMLCFKRRKKAAKALKPKAG; UniProt P24588 31-52, looked up, fragment)”, the “block of PKC/AKAP 79 interaction” value in the assay with PKC/AKAP 79 interaction is on record as “blocked”. For the same substance, the “effect of incubation with CaM on inhibition of PKC” value in the assay with PKC (CaM 15 μM, excess Ca2+) was “prevented inhibition”. In addition, the “type of inhibition of PKC activity” value in the assay with PKC (EGF receptor peptide as substrate) is “mixed inhibition”. The pIC50 on PKC (read-out: IC50 of inhibition of PKC activity) is 5.70.

Consider “unlabeled RII: unlabeled RII regulatory subunit of PKA, reference inhibitor”, for which, on AKAP 79/RII binding, the pIC50 is 9.00.

The record behind these values is patent US6107104A, “Modulators of anchoring protein function” (ICOS Corporation, priority 1996, dated 2000).
